Data: patent publication US9981929B2, “Method for prevention of premature polymerization” (NITTO BELGIUM NV, priority 2015, dated 2018)

Key:
[1] = Kugelrohr distillation (purification) of SMA in the presence of the inhibitors; conditions: 500 ppm inhibitor, 10 g SMA, kugelrohr 240 °C, about 0.2 mbar; visual viscosity increase
Description: The temperature of the kugelrohr is set to 240° C. The distillation starts when the vacuum reached about 0.2 mbar. Polymerization in the rotating pitch is evaluated by visually determining increased viscosity.
The inhibitors were added as such to the SMA prior to the distillation, no methanolic solution as described earlier is used.

[2] = Synthesis of SMA via transesterification in the presence of the inhibitors; conditions: 500 ppm inhibitor
Description: SMA is prepared via transesterification in the presence of the indicated inhibitors. A two-neck flask, equipped with a Dean-Stark apparatus and a reflux condenser, is charged with three equivalents of methyl methacrylate, one equivalent of stearyl/palmityl alcohol and 500 ppm of inhibitor. Air is bubbled through the solution using a needle, septum and vacuum pump, set at 900 mbar.
The methyl methacrylate/methanol azeotrope is collected and at the end of the reaction any remaining methyl methacrylate is removed under reduced pressure at the rotavapor.

[3] = end of reaction after removal of methanol and excess methyl methacrylate

| Properties end (precipitate / solubility of catalyst/inhibitor) [2, 3] | Properties start (solubility of catalyst/inhibitor) ([2]; start of reaction) | SMILES | Polymerization [1] | Properties end (color of the reaction mixture) [2, 3] | Properties start (color of the reaction mixture) ([2]; start of reaction) |
| --- | --- | --- | --- | --- | --- |
|  |  | CCCCCCCCS(=O)(=O)[O-].CN(C)c1ccc2nc3ccc(N(C)C)cc3[s+]c2c1 [Inhibitor I-1, octanesulfonate salt of methylene blue] | no |  |  |
|  |  | CCCCCCCCS(=O)(=O)[O-].CN(C)c1ccc2nc3ccc(N(C)C)cc3[s+]c2c1.[Cl-].[Na+] [Inhibitor I-1a] | no |  |  |
|  |  | CCCCCCCCCCCCCCCCS(=O)(=O)[O-].CN(C)c1ccc2nc3ccc(N(C)C)cc3[s+]c2c1.[Cl-].[Na+] [Inhibitor I-2a] | no | brown liquid very | dark blue solution |
|  |  | CC(C)(C)c1cc(OCCCS(=O)(=O)[O-])c(C(C)(C)C)cc1O.CN(C)c1ccc2nc3ccc(N(C)C)cc3[s+]c2c1 [Inhibitor I-4] | no | purple liquid | deep purple solution |
|  |  | CN(C)c1ccc2nc3ccc(=[N+](C)C)cc-3sc2c1 [MB, methylene blue] |  | brown liquid | dark blue solution |
| precipitate (catalyst) | homogeneous | COc1ccc(O)cc1 [MeHQ, 4-methoxyphenol] |  | yellow liquid white | colorless solution |
